Assay type in all cases: in vivo
For assay [1], the system named is barnyardgrass (Echinochloa crus-galli). The assay is described as follows: Test A postemergence. Conditions: Echinochloa crus-galli, post-emergence, 240 h, postemergence; for pest or weed control at 125 g/ha: 125 g ai/ha, visual injury on 0 to 100 scale (0 no effect, 100 complete control); for pest or weed control at 500 g/ha: 500 g ai/ha. Summed up: (§1)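 Visual injury, scored on a 0–100 scale relative to untreated controls, was recorded about 10 d after application. Treatments were a preemergence soil spray over planted seeds or a postemergence spray on plants at the one- to two-leaf stage, 2 to 10 cm tall, all in loam soil–sand blend in the greenhouse.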

Assay [2] relates to pigweed (Amaranthus retroflexus). The assay is described as follows: Test A postemergence. Conditions: Amaranthus retroflexus, post-emergence, 240 h, postemergence, read-out: Pigweed plant response rating; for pest or weed control at 125 g/ha: 125 g ai/ha, visual injury on 0 to 100 scale (0 no effect, 100 complete control), approx. 10 d. The method, boiled down: as §1
Assay [3] deals with giant foxtail (Setaria faberii). The assay is described as follows: Test A postemergence. Conditions: Setaria faberi, post-emergence, 240 h, postemergence; for pest or weed control at 125 g/ha: 125 g ai/ha, visual injury on 0 to 100 scale (0 no effect, 100 complete control); for pest or weed control at 500 g/ha: 500 g ai/ha. The method, boiled down: as §1
For assay [4], the system named is wheat (Triticum aestivum). Description: Test A postemergence. Conditions: Triticum aestivum, post-emergence, 240 h, postemergence, read-out: Wheat plant response rating; for plant injury at 125 g/ha: 125 g ai/ha, visual injury on 0 to 100 scale (0 no effect, 100 complete control), approx. 10 d. The method, boiled down:
as §1

In assay [5] the test system is ryegrass, Italian (Italian ryegrass, Lolium multiflorum). The assay is described as follows: Test A postemergence. The following applies: Lolium multiflorum, post-emergence, 240 h, postemergence, read-out: Ryegrass, Italian plant response rating; for pest or weed control at 125 g/ha: 125 g ai/ha, visual injury on 0 to 100 scale (0 no effect, 100 complete control), approx. 10 d. Summed up:
as §1

The subject of assay [6] is Galium (catchweed bedstraw, Galium aparine). The assay is described as follows: Test A postemergence. Conditions: Galium, post-emergence, 240 h, postemergence; for pest or weed control at 125 g/ha: 125 g ai/ha, visual injury on 0 to 100 scale (0 no effect, 100 complete control); for pest or weed control at 500 g/ha: 500 g ai/ha. Summed up:
as §1

The test system of a further assay is corn (Zea mays). Description: Test A postemergence. The following applies: Zea mays, post-emergence, 240 h, postemergence; for plant injury at 125 g/ha: 125 g ai/ha, visual injury on 0 to 100 scale (0 no effect, 100 complete control). The method, boiled down: as §1
For assay [7], the system named is blackgrass (Alopecurus myosuroides). The assay is described as follows: Test A postemergence. Conditions: Alopecurus myosuroides, post-emergence, 240 h, postemergence; for pest or weed control at 125 g/ha: 125 g ai/ha, visual injury on 0 to 100 scale (0 no effect, 100 complete control); for pest or weed control at 500 g/ha: 500 g ai/ha. The method, boiled down: as §1

Assay [8] relates to ragweed (common ragweed, Ambrosia elatior). The assay is described as follows: Test A postemergence. The following applies: Ambrosia artemisiifolia, post-emergence, 240 h, postemergence, read-out: Ragweed plant response rating; for pest or weed control at 125 g/ha: 125 g ai/ha, visual injury on 0 to 100 scale (0 no effect, 100 complete control), approx. 10 d. The method, boiled down: as §1

Another assay concerns Kochia (Kochia scoparia). The assay is described as follows: Test A postemergence. The following applies: Bassia scoparia, post-emergence, 240 h, postemergence, read-out: Kochia plant response rating; for pest or weed control at 125 g/ha: 125 g ai/ha, visual injury on 0 to 100 scale (0 no effect, 100 complete control), approx. 10 d. The method, boiled down: as §1
Assay [9] has as its system giant foxtail (Setaria faberii). The assay is described as follows: Test A preemergence. The following applies: Setaria faberi, pre-emergence, 240 h; for pest or weed control at 125 g/ha: 125 g ai/ha; for pest or weed control at 500 g/ha: 500 g ai/ha. The method, boiled down:
as §1

Assay [10] deals with sedge, umbrella (small-flower umbrella sedge, Cyperus difformis). The assay is described as follows: Test B flooded paddy test. Conditions: Cyperus difformis, 250 g ai/ha, Flood; 0 to 100 scale where 0 is no effect and 100 is complete control; read-out: Sedge, Umbrella plant response rating. Summed up: (§2)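 Compound goes directly into floodwater once pots are flooded 3 cm above soil, targeting plants at two leaves; the water depth is then held for the test duration. Plants sit 13–15 d in a greenhouse and are rated visually, 100 denoting complete control.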

The subject of assay [11] is barnyardgrass (Echinochloa crus-galli). Description: Test B flooded paddy test. Conditions: Echinochloa crus-galli, 250 g ai/ha, Flood; 0 to 100 scale where 0 is no effect and 100 is complete control; read-out: Barnyardgrass plant response rating. The method, boiled down:
as §2

In the next assay the test system is rice (Oryra sativa). Description: Test B flooded paddy test. Conditions: Oryza sativa, 250 g ai/ha, Flood; 0 to 100 scale where 0 is no effect and 100 is complete control; read-out: Rice plant response rating. The method, boiled down:
as §2

Assay [12] relates to ducksalad (Heteranthera limosa). Description: Test B flooded paddy test. The following applies: Heteranthera limosa, 250 g ai/ha, Flood; 0 to 100 scale where 0 is no effect and 100 is complete control; read-out: Ducksalad plant response rating. The method, boiled down: as §2
The mark [13] stands for this setting: approx. 10 d, read-out: Barnyardgrass plant response rating.
The mark [14] stands for this setting: approx. 10 d, read-out: Foxtail, Giant plant response rating.
The mark [15] stands for this setting: approx. 10 d, read-out: Galium plant response rating.
Setting [16] is: approx. 10 d, read-out: Corn plant response rating.
Where [17] appears, read: approx. 10 d, read-out: Blackgrass plant response rating.
The mark [18] stands for this setting: 500 g ai/ha, 0 to 100 scale, 0 is no effect, 100 is complete control.

Like-named read-outs stand apart in the source and are kept apart here.

Consider `Cc1cc([C@H]2CNC(=O)[C@@H]2C(=O)Nc2ccccc2S(C)(=O)=O)ccc1C(F)(F)F` [Compound 1041], for which the pest or weed control at 125 g/ha came out at 0% in assay [1] (setting [13]); 0% in assay [2]; 0% in assay [3] (setting [14]); 0% in [5]; 40% in assay [6] (setting [15]); 0% in [7] (setting [17]). The pest or weed control at 125 g/ha in [8] amounted to 0%; with Kochia (Kochia scoparia), 0%; in assay [9] (Preemergence, visual injury rating after approximately 10 d, read-out: Foxtail, Giant plant response rating (0 to 100 scale, 0 is no effect, 100 is complete control)) it was 80%. Also, the pest or weed control at 500 g/ha came to 50% in [1] (visual injury, 0 to 100 scale (0 no effect, 100 complete control), approx. 10 d, read-out: Plant response rating, Barnyardgrass); 50% in assay [3] (visual injury, 0 to 100 scale (0 no effect, 100 complete control), approx. 10 d, read-out: Plant response rating, Foxtail, Giant); 60% in assay [6] (visual injury, 0 to 100 scale (0 no effect, 100 complete control), approx. 10 d, read-out: Plant response rating, Galium); 40% in assay [7] (visual injury, 0 to 100 scale (0 no effect, 100 complete control), approx. 10 d, read-out: Plant response rating, Blackgrass); 90% in assay [9] (preemergence, visual injury rating about 10 d after treatment, 0 to 100 scale (0 no effect, 100 complete control), read-out: Foxtail, Giant plant response rating). Further, the plant injury at 125 g/ha (in assay [4]; in the assay on corn (Zea mays) (setting [16])) was 0% in each case. The compound also returned a Corn plant response rating (crop injury, 0 = no effect, 100 = complete kill) at 500 g/ha in the assay with corn (Zea mays) (500 g ai/ha, visual injury, 0 to 100 scale (0 no effect, 100 complete control), approx. 10 d) of 30%. For the same compound, the pest or weed control at 250 g/ha in assay [10] is 0%; in assay [11], 0%; in the assay with rice (Oryra sativa), 0%; in assay [12], 100%.

For `CN1CC(c2cccc(O)c2)C(C(=O)Nc2cccc(F)c2F)C1=O` (centres unmarked) [Compound 1130], the pest or weed control at 125 g/ha in assay [1] (setting [13]), in assay [2], in assay [3] (setting [14]), in assay [5], in assay [6] (setting [15]) and in [7] (setting [17]) was 0% each time. Besides, the pest or weed control at 125 g/ha was 0% in [8]; 0% with Kochia (Kochia scoparia); 0% in assay [9] (preemergence, 0 to 100 scale where 0 is no effect and 100 is complete control, approx. 10 d, read-out: Foxtail, Giant plant response rating). In addition, the pest or weed control at 500 g/ha was determined as 20% in [1] (0 to 100 scale, 0 is no effect, 100 is complete control, read-out: Barnyardgrass plant response rating); 0% in [2] (setting [18]); 30% in [3] (0 to 100 scale, 0 is no effect, 100 is complete control, read-out: Foxtail, Giant plant response rating); 0% in assay [5] (setting [18]); 0% in [6] (0 to 100 scale, 0 is no effect, 100 is complete control, read-out: Galium plant response rating); 0% in [7] (0 to 100 scale, 0 is no effect, 100 is complete control, read-out: Blackgrass plant response rating). In addition, the pest or weed control at 500 g/ha in assay [8] (setting [18]) came to 0%; with Kochia (Kochia scoparia) (setting [18]), 0%; in [9] (preemergence, 0 to 100 scale where 0 is no effect and 100 is complete control, read-out: Foxtail, Giant plant response rating), 30%. Moreover, the plant injury at 125 g/ha (in assay [4]; in the assay on corn (Zea mays) (setting [16])) was 0% throughout. Further, the plant injury at 500 g/ha in assay [4] (setting [18]) worked out at 0%; in the assay with corn (Zea mays) (500 g ai/ha, 0 to 100 scale, 0 is no effect, 100 is complete control, read-out: Corn plant response rating), 0%. Besides, the pest or weed control at 250 g/ha (in assay [10]; in assay [11]; with rice (Oryra sativa); in assay [12]) was 0% in each case.
